Reference: PMC3260207, “Site-Directed Mutations and the Polymorphic Variant Ala160Thr in the Human Thromboxane Receptor Uncover a Structural Role for Transmembrane Helix 4” (PLoS ONE, 2012)
Where a chain is given by its changes, count along the chain named.

Tests used:
Format in all cases: cell-based
[1] = target: T1, TP A160T mutant (nsSNP variant) (Homo sapiens, UniProt P21731, A160T); assay: Reversal of basal (agonist-independent) calcium mobilization in transfected HEK293T cells; details: HEK293T cells pre-treated with 1 µM unlabelled SQ 29,548, p<0.05
T1 construct: expressed in transfected cells; HEK293T (calcium assays)
T1 sequence (P21731 1-343 A160T): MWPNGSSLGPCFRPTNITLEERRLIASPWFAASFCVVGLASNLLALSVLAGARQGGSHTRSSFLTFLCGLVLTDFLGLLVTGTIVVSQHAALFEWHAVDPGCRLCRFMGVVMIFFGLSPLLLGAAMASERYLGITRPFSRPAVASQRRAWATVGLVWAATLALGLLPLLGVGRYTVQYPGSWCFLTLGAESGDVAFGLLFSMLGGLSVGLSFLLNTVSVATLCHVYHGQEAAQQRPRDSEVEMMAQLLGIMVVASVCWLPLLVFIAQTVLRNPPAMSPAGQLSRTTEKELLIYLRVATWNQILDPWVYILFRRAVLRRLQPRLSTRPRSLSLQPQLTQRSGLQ
Experimental: Changes in intracellular calcium were measured by using the fluorescent calcium sensitive dye Fluo-4NW (Invitrogen). After 6–8 hours of transient transfection of HEK293T cells using lipofectamine 2000, 100,000 viable cells were plated into each well of a 96-well tissue culture treated BD-falcon optilux plates. Cells mock transfected with vector pMT4 alone were used as a negative control. Following 24 hours of incubation at 37°C, the media was removed and cells were incubated with the dye Fluo-4NW (Invitrogen) containing 77 µg/ml of probenecid for 1 hour, as recommended by the manufacturer. […] Dose–response curves were generated and EC50 values calculated by nonlinear regression analysis using PRISM software version 5.0 (GraphPad Software Inc, San Diego, CA) after subtracting the responses of mock-transfected cells stimulated with same concentrations of agonists.
For estimation of calcium mobilized using the non-ratiometric calcium indicator Fluo-4NW, the ΔF/F ratio which approximately indicates calcium is calculated using the equation (19), ΔF/F = (F-Fbase)/(Fbase -B). Where F is the measured fluorescence intensity of Fluo-4NW, Fbase is the fluorescence intensity of Fluo-4NW in the cell before stimulation, and B is the background signal determined from areas adjacent to the cell. […]

TP F115A mutant = target: T2, TP F115A mutant (Homo sapiens, UniProt P21731, F115A); assay: Intracellular calcium mobilization (Fluo-4NW) in transfected HEK293T cells; parameters: expressed in transfected cells; transient, pMT4; details: read-out: EC50 of agonist U46619 (calcium mobilized), transiently transfected HEK293T cells, mean ± S.E
T2 sequence (P21731 1-343 F115A): T1 sequence (P21731 1-343 A160T) with F115A, T160A
Experimental: (§1) Amino acid substitutions were introduced into the synthetic TPα gene carried by the expression vector pMT4 as described previously, [29]. DNA sequences of all the mutated genes were verified by automated DNA sequencing. To minimize variations in transfection efficiency, the total amount transfected DNA was kept constant in all cases at 1 µg of DNA per 7×10^5 cells. The wild type TP or mutant genes were expressed in COS-1 cells using a DEAE-dextran based transient transfection method, [29], and in HEK293T cells using lipofectamine 2000 (Invitrogen). Except unless specified, the membranes prepared from COS-1 cells were used for radioligand binding assays and immunoblots. For intracellular calcium determination assays and immunofluorescence imaging, HEK293T cells were used. […] The protein concentration in the resuspended membrane pellet was determined using a modified DC protein assay kit from Bio-Rad Laboratories (Hercules, CA).
(§2) Changes in intracellular calcium were measured by using the fluorescent calcium sensitive dye Fluo-4NW (Invitrogen). […] Dose–response curves were generated and EC50 values calculated by nonlinear regression analysis using PRISM software version 5.0 (GraphPad Software Inc, San Diego, CA) after subtracting the responses of mock-transfected cells stimulated with same concentrations of agonists.

[2] = target: T3, TP A160V/F115A double mutant (Homo sapiens, UniProt P21731, A160V/F115A); assay: as above; parameters: expressed in transfected cells; transient, pMT4; details: read-out: EC50 of agonist U46619 (calcium mobilized), transiently transfected HEK293T cells, mean ± S.E
T3 sequence (P21731 1-343 F115A/A160V): T1 sequence (P21731 1-343 A160T) with F115A, T160V
Experimental: as §1, §2

Row | Structure (SMILES) | Effect on basal (agonist-independent) calcium mobilization [1] | EC50 (TP F115A mutant) | EC50 [2]
1 | O=C(O)CCC/C=C\C[C@@H]1[C@H](CNNC(=O)Nc2ccccc2)[C@H]2CC[C@@H]1O2 [SQ 29,548] | significant decrease in basal activity |  | 
2 | CCCCC[C@H](O)/C=C/[C@@H]1[C@@H](C/C=C\CCCC(=O)O)[C@H]2CO[C@@H]1C2 [U46619] |  | 2 ± 0.3 nM | 43.5 ± 1.5 nM
